According to patent US9410125B2, “Medium for mammalian somatic cells and additive therefor” (FUJIREBIO INC., priority 2007, dated 2016):

Tested on: human bone marrow-derived mesenchymal stem cells (hMSCs)
Assay: Adipogenic differentiation of hMSCs (Oil Red O staining)
Format: cell-based
Conditions: Example 2, differentiation into adipocytes and osteocytes
Procedure: Cells maintained for several passages using the conventional medium in (2-2) and 1% S-3, 1% FCS were transferred to wells in a 96-well plate each containing 0.1 mL of an adipocyte differentiation medium (DMEM, 10% FCS, 500 μM isobutylmethylxanthine (IBMX), 1 μM dexamethasone, 1 μM insulin, 1 μM Rosiglitazone) at a cell density of 20,000 cells/cm2, and cultured at 37° C. under 5% CO2 for 14 days, to induce differentiation into adipocytes. differentiated cells were confirmed by Oil Red O staining.
Cells maintained for several passages using conventional medium A and serum-free growth medium A were transferred to wells in a 48-well plate each containing 0.3 mL of an adipocyte differentiation medium (DMEM, 10% FCS, 500 μM IBMX, 1 μM dexamethasone, 1 μM insulin, 1 μM Rosiglitazone) at a cell density of 30,000 cells/cm2, and cultured at 37° C. under 5% CO2 for 14 days, to induce differentiation into adipocytes. differentiated cells were confirmed by Oil Red O staining. […]

In the case of CCCCCCCCCCCCC/C=C/[C@@H](O)[C@@H](N)COP(=O)(O)O [S1P, sphingosine-1-phosphate], the “tendency in differentiation when used instead of LPA as the Edg ligand” value is reported as “did not change”.
